Measurements from patent EP4759812A1 (Guangzhou Lupeng Pharmaceutical Co., Ltd., priority 2023, dated 2025).
“Also recorded” adds a separate entry of the source.

Assays:
Format in all cases: physicochemical
Long-term stability test = details: 25±2°C, 60±5 RH %; for Crystal form: XRPD
[1] = Influencing factor stability: light exposure test; details: Visible light 4500 Lux ± 500 Lux; for Crystal form: ultraviolet light 1.7 W*h/m^2 (25°C, RH 60%±5%), XRPD; for Purity: HPLC, starting purity: Crystal form VI 99.32%, Amorphous form 98.80%, Crystal form XIII 99.01%
Procedure: (§1) The crystal form results under different conditions were identified by XRPD analysis, and the purity results under different conditions were identified by HPLC analysis.
(§2) The above samples were then taken on days 5, 10, 15, and 30, respectively. Their crystal forms were tested by adopting X-ray powder diffraction (XRPD), and the sample purities were tested by adopting HPLC. […]

[2] = Dynamic vapor sorption (DVS) experiment; details: for Hygroscopicity: class per Chinese Pharmacopoeia 2010 guidance (25±0.2°C, 80% relative humidity)
[3] = Stability test in pure water and buffer solution (suspension, XRPD); details: 25°C, stirred 24 h, solid by XRPD
Procedure: The suspensions were stirred at 25°C for 24 h, and filtered to obtain the solids. Samples were taken for XRPD measurement. […]

[4] = Influencing factor stability: high-humidity test; details: Temperature 25°C, relative humidity 92.5±5%; for Purity: HPLC, starting purity: Crystal form VI 99.32%, Amorphous form 98.80%, Crystal form XIII 99.01%; for Crystal form: XRPD
Procedure: as §1, §2

[5] = Accelerated stability test; details: 40±2°C, 75±5 RH %; for Crystal form: XRPD
[6] = Morphological comparison under polarizing light microscope
[7] = Influencing factor stability: high-temperature test; details: Temperature 60°C; for Purity: HPLC, starting purity: Crystal form VI 99.32%, Amorphous form 98.80%, Crystal form XIII 99.01%; for Crystal form: XRPD
Procedure: as §1, §2

C=CC(=O)Nc1cc(Nc2nc(-c3ccnc(N4CCn5c(cc6c5CC(C)(C)C6)C4=O)c3CO)cn(C)c2=O)ccc1N1CCN(C2CCOCC2)C[C@@H]1C [Crystal form VI, (S)-N-(5-((6-(2-(7,7-dimethyl-1-oxo-1,3,4,6,7,8-hexahydro-2H-cyclopenta[4,5]pyrrolo[1,2-a]pyrazin-2-yl)-3-(hydroxymethyl)pyridin-4-yl)-4-methyl-3-oxo-3,4-dihydropyrazin-2-yl)amino)-2-(2-methyl-4-(tetrahydro-2H-pyran-4-yl)piperazin-1-yl)phenyl)acrylamide]
Purity (Long-term stability test; 0 days): 99.32% | Crystal form (Long-term stability test; 0 days): Crystal form VI | Purity (Long-term stability test; 1 month): 99.31% | Crystal form (Long-term stability test; 1 month): Crystal form VI | Purity (Long-term stability test; 6 months): 99.35% | Crystal form (Long-term stability test; 6 months): Crystal form VI | Purity (Long-term stability test; 12 months): 99.28% | Crystal form (Long-term stability test; 12 months): Crystal form VI | Purity (Long-term stability test; 18 months): 99.31% | Crystal form (Long-term stability test; 18 months): Crystal form VI | Purity (Long-term stability test; 24 months): 99.30% | Crystal form (Long-term stability test; 24 months): Crystal form VI | Crystal form (Long-term stability test; 24 months, listed as crystal form VI): no change in crystal form | Crystal form ([1]; 5 days): Crystal form VI | Crystal form ([1]; 10 days): Crystal form VI | Crystal form ([1]; 15 days): Crystal form VI | Crystal form ([1]; 30 days): Crystal form VI | Purity ([1]; ultraviolet light 1.7 W*h/m^2, 5 days): 99.17% | Purity ([1]; ultraviolet light 1.7 W*h/m^2, 10 days): 99.23% | Purity ([1]; ultraviolet light 1.7 W*h/m^2, 15 days): 98.71% | Purity ([1]; ultraviolet light 1.7 W*h/m^2, 30 days): 98.14% | Adsorption weight gain (80% RH) ([2]; DVS, 80% RH): 0.79% | Adsorption weight gain (95% RH) ([2]; DVS, 95% RH): 1.34% | Hygroscopicity [2]: Slightly hygroscopic (hygroscopic weight gain is less than 2% but not less than 0.2%) | Hygroscopicity ([2]; listed as crystal form VI): slightly hygroscopic; also recorded: slight hygroscopicity | Suspension result ([3]; Pure water): Crystal form VI | Suspension result ([3]; pH 4.5 buffer solution): Crystal form VI | Suspension result ([3]; pH 6.8 buffer solution): Crystal form VI | Purity ([4]; 5 days): 99.35% | Crystal form ([4]; 5 days): Crystal form VI | Purity ([4]; 10 days): 99.35% | Crystal form ([4]; 10 days): Crystal form VI | Purity ([4]; 15 days): 99.32% | Crystal form ([4]; 15 days): Crystal form VI | Purity ([4]; 30 days): 99.31% | Crystal form ([4]; 30 days): Crystal form VI | Purity ([5]; 0 days): 99.32% | Crystal form ([5]; 0 days): Crystal form VI | Purity ([5]; 1 month): 99.18% | Crystal form ([5]; 1 month): Crystal form VI | Purity ([5]; 3 months): 98.98% | Crystal form ([5]; 3 months): Crystal form VI | Purity ([5]; 6 months): 98.54% | Crystal form ([5]; 6 months): Crystal form VI | Crystal form ([5]; 6 months, listed as crystal form VI): no change in crystal form | dispersibility and flowability / agglomeration and caking ([6]; judged from polarizing light microscope images): relatively good dispersibility and flowability | crystal morphology ([6]; polarizing light microscope): long rod-shaped | Purity ([7]; 5 days): 99.31% | Crystal form ([7]; 5 days): Crystal form VI | Purity ([7]; 10 days): 99.25% | Crystal form ([7]; 10 days): Crystal form VI | Purity ([7]; 15 days): 98.96% | Crystal form ([7]; 15 days): Crystal form VI | Purity ([7]; 30 days): 98.72% | Crystal form ([7]; 30 days): Crystal form VI | Crystal form ([7]; 30 days, listed as crystal form VI): no change in crystal form
